Measured values taken from US20190290772A1 (published 2019).

What was measured:
[1] = tested on: diet-induced obese (DIO) mice; assay: Weight-lowering and metabolic pharmacology in diet-induced obese mice on HFHSD; assay type: in vivo; conditions: for food intake: DIO mice (FIG. 5C); for effect on body weight: DIO mice on HFHSD, equimolar doses, daily s.c. (FIG. 5A)
Procedure: (§1) For pharmacology studies on energy metabolism in obese mice (DIO mice), male C57Bl/6j mice (Jackson Laboratories) were fed a diabetogenic diet (Research Diets D12331), which is a high-sucrose diet with 58% kcal from fat 25.5% kcal from carbohydrates, and 16.4% kcal from protein. Dietary challenges began at 8 weeks of age. HFHSD mice were single- or group-housed on a 12:12-h light-dark cycle at 22° C. with free access to food and water. Mice were maintained under these conditions for a minimum of 16 weeks before initiation of pharmacological studies and were between the ages of 6 months to 12 months old. All injections and tests were performed during the light cycle. Compounds were administered in a vehicle of 1% Tween-80 and 1% DMSO and were given by daily subcutaneous injections at the indicated doses at a volume of 5 μl per g body weight. Mice were randomized and evenly distributed to test groups according to body weight and body composition. If ex vivo molecular biology/histology/biochemistry analyses were performed, the entire group of mice for each treatment was analyzed and scored in a blinded fashion.
Compounds were administered by repeated subcutaneous injections in the middle of the light phase at the indicated doses with the indicated durations. Co-administration of compounds was administered by single formulated injections. Body weights and food intake were measured every day or every other day after the first injection. All studies with wild-type mice were performed with a group size of n=8 or greater using mice on a C57B16j background.
For assessment of intraperitoneal glucose tolerance during chronic treatment, the challenge tests were performed at least 24 hours after the last administration of compounds. The investigators were not blinded to group allocation during the in vivo experiments or to the assessment of longitudinal endpoints. All rodent studies were approved by and performed according to the guidelines of the Institutional Animal Care and Use Committee of the Helmholtz Center Munich, University of Cincinnati, Universite de Lyon, and in accordance with guidelines of the Association for the Assessment and Accreditation of Laboratory and Animal Care (AAALAC # Unit Number: 001057) and appropriate federal, state and local guidelines, respectively.
Whole-body composition (fat and lean mass) was measured using nuclear magnetic resonance technology (EchoMRI).

[2] = molecular target: human glucagon receptor (GcgR) (Homo sapiens, UniProt P47871); assay: Human glucagon receptor activation (Table 1); assay type: cell-based; conditions: read-out: EC50 (nM) hGcgR
[3] = tested on: diet-induced obese (DIO) mice; assay: Indirect calorimetry in DIO mice (energy expenditure, RER, home-cage activity, food intake); assay type: in vivo
Procedure: as §1, with “fashion. Energy intake, energy expenditure, respiratory exchange ratio, and home-cage activity were assessed using a combined indirect calorimetry system (TSE Systems). O2 consumption and CO2 production were measured every 10 min for a total of up to 160 h (after 24 h of adaptation) to determine the respiratory quotient and energy expenditure after an initial treatment regimen. Food intake was determined continuously for the same time as the indirect calorimetry assessments by integration of scales into the sealed cage environment. Home-cage locomotor activity was determined using a multidimensional infrared light beam system with beams scanning the bottom and top levels of the cage, and activity being expressed as beam breaks.” for “fashion.”

[4] = tested on: diet-induced obese (DIO) mice; assay: Heart weight / cardiac hypertrophy in DIO mice; conditions: mouse, in vivo
Procedure: For pharmacology studies on energy metabolism in obese mice (DIO mice), male C57Bl/6j mice (Jackson Laboratories) were fed a diabetogenic diet (Research Diets D12331), which is a high-sucrose diet with 58% kcal from fat 25.5% kcal from carbohydrates, and 16.4% kcal from protein. Dietary challenges began at 8 weeks of age. HFHSD mice were single- or group-housed on a 12:12-h light-dark cycle at 22° C. with free access to food and water. Mice were maintained under these conditions for a minimum of 16 weeks before initiation of pharmacological studies and were between the ages of 6 months to 12 months old. All injections and tests were performed during the light cycle. Compounds were administered in a vehicle of 1% Tween-80 and 1% DMSO and were given by daily subcutaneous injections at the indicated doses at a volume of 5 μl per g body weight. Mice were randomized and evenly distributed to test groups according to body weight and body composition. If ex vivo molecular biology/histology/biochemistry analyses were performed, the entire group of mice for each treatment was analyzed and scored in a blinded fashion. Compounds were administered by repeated subcutaneous injections in the middle of the light phase at the indicated doses with the indicated durations. […] Body weights and food intake were measured every day or every other day after the first injection. […]

| Structure (SMILES) | food intake [1] | effect on body weight [1] | absolute decrease in body weight from baseline ([1]; DIO mice, 100 nmoles/kg, daily subcutaneous treatment, after a week (FIG. 5A)) | EC50 [2] | food intake during calorimetry ([3]; DIO mice (FIG. 6D)) | body weight loss during calorimetry study ([3]; DIO mice (FIG. 6E)) | home cage / ambulatory activity ([3]; DIO mice (FIG. 6F)) | whole-body energy expenditure ([3]; DIO mice, indirect calorimetry (FIG. 6C)) | glucose tolerance ([1]; DIO mice, higher dose, equimolar (FIG. 5D)) | heart weight / cardiac hypertrophy [4] |
| --- | --- | --- | --- | --- | --- | --- | --- | --- | --- | --- |
| CC[C@H](C)[C@H](NC(=O)[C@H](Cc1ccccc1)NC(=O)[C@H](CCC(=O)O)NC(=O)[C@H](CCCCN)NC(=O)[C@H](C)NC(=O)[C@H](C)NC(=O)[C@H](CCC(N)=O)NC(=O)[C@H](CCC(=O)O)NC(=O)[C@H](CCC(=O)O)NC(=O)[C@H](CC(C)C)NC(=O)[C@H](Cc1ccc(O)cc1)NC(=O)[C@H](CO)NC(=O)[C@H](CO)NC(=O)[C@@H](NC(=O)[C@H](CC(=O)O)NC(=O)[C@H](CO)NC(=O)[C@@H](NC(=O)[C@H](Cc1ccccc1)NC(=O)[C@@H](NC(=O)CNC(=O)[C@H](CCC(=O)O)NC(=O)C(C)(C)NC(=O)[C@@H](N)Cc1c[nH]cn1)[C@@H](C)O)[C@@H](C)O)C(C)C)C(=O)N[C@@H](C)C(=O)N[C@@H](Cc1c[nH]c2ccccc12)C(=O)N[C@@H](CC(C)C)C(=O)N[C@H](C(=O)N[C@@H](CCCCN)C(=O)NCC(=O)NCC(=O)N1CCC[C@H]1C(=O)N[C@@H](CO)C(=O)N[C@@H](CO)C(=O)NCC(=O)N[C@@H](C)C(=O)N1CCC[C@H]1C(=O)N1CCC[C@H]1C(=O)N1CCC[C@H]1C(=O)N[C@@H](CO)C(=O)N[C@@H](CCCCNC(=O)CCC(=O)N[C@@H](Cc1cc(I)c(Oc2ccc(O)c(I)c2)c(I)c1)C(=O)O)C(N)=O)C(C)C [IUB687, IUB48-(Suc-T3-OH)-amide] | no reductions in food intake | significantly lowered body weight in a dose-dependent manner | 11% | > 100 nM | – | – | – | – | – | – |
| N[C@@H](Cc1cc(I)c(Oc2ccc(O)c(I)c2)c(I)c1)C(=O)O [Peptide T3, Triiodothyronine] | increased | minimal impact on body weight | – | – | hyperphagia | less body weight loss | significantly increased home cage activity | substantially increased whole-body energy expenditure | improved glycemic control | – |
| CC[C@H](C)[C@H](NC(=O)[C@H](Cc1ccccc1)NC(=O)[C@H](CCC(=O)O)NC(=O)[C@H](CCCCN)NC(=O)[C@H](C)NC(=O)[C@H](C)NC(=O)[C@H](CCC(N)=O)NC(=O)[C@H](CCC(=O)O)NC(=O)[C@H](CCC(=O)O)NC(=O)[C@H](CC(C)C)NC(=O)[C@H](Cc1ccc(O)cc1)NC(=O)[C@H](CO)NC(=O)[C@H](CO)NC(=O)[C@@H](NC(=O)[C@H](CC(=O)O)NC(=O)[C@H](CO)NC(=O)[C@@H](NC(=O)[C@H](Cc1ccccc1)NC(=O)[C@@H](NC(=O)CNC(=O)[C@H](CCC(=O)O)NC(=O)C(C)(C)NC(=O)[C@@H](N)Cc1c[nH]cn1)[C@@H](C)O)[C@@H](C)O)C(C)C)C(=O)N[C@@H](C)C(=O)N[C@@H](Cc1c[nH]c2ccccc12)C(=O)N[C@@H](CC(C)C)C(=O)N[C@H](C(=O)N[C@@H](CCCCN)C(=O)NCC(=O)NCC(=O)N1CCC[C@H]1C(=O)N[C@@H](CO)C(=O)N[C@@H](CO)C(=O)NCC(=O)N[C@@H](C)C(=O)N1CCC[C@H]1C(=O)N1CCC[C@H]1C(=O)N1CCC[C@H]1C(=O)N[C@@H](CO)C(=O)N[C@@H](CCCCN)C(N)=O)C(C)C [IUB48] | – | minimal impact on body weight | – | > 100 nM | – | – | – | – | – | – |
| CC[C@H](C)[C@H](NC(=O)[C@H](Cc1ccccc1)NC(=O)[C@H](CCC(=O)O)NC(=O)[C@H](CCCCN)NC(=O)[C@H](C)NC(=O)[C@H](C)NC(=O)[C@H](CCC(N)=O)NC(=O)[C@H](CCC(=O)O)NC(=O)[C@H](CCC(=O)O)NC(=O)[C@H](CC(C)C)NC(=O)[C@H](Cc1ccc(O)cc1)NC(=O)[C@H](CO)NC(=O)[C@H](CO)NC(=O)[C@@H](NC(=O)[C@H](CC(=O)O)NC(=O)[C@H](CO)NC(=O)[C@@H](NC(=O)[C@H](Cc1ccccc1)NC(=O)[C@@H](NC(=O)CNC(=O)[C@H](CCC(=O)O)NC(=O)C(C)(C)NC(=O)[C@@H](N)Cc1c[nH]cn1)[C@@H](C)O)[C@@H](C)O)C(C)C)C(=O)N[C@@H](C)C(=O)N[C@@H](Cc1c[nH]c2ccccc12)C(=O)N[C@@H](CC(C)C)C(=O)N[C@H](C(=O)N[C@@H](CCCCN)C(=O)NCC(=O)NCC(=O)N1CCC[C@H]1C(=O)N[C@@H](CO)C(=O)N[C@@H](CO)C(=O)NCC(=O)N[C@@H](C)C(=O)N1CCC[C@H]1C(=O)N1CCC[C@H]1C(=O)N1CCC[C@H]1C(=O)N[C@@H](CO)C(=O)N[C@@H](CCCCNC(=O)CC[C@H](NC(=O)[C@@H](N)Cc1cc(I)c(Oc2ccc(O)c(I)c2)c(I)c1)C(=O)O)C(N)=O)C(C)C [IUB686, IUB48-(gE-T3-NH2)-amide] | – | – | – | > 100 nM | – | – | – | – | – | did not increase raw heart weight |
